Test results published in article PMC7468596, “Potent In Vitro α-Glucosidase and β-Secretase Inhibition of Amyrin-Type Triterpenoid Isolated from Datura metel Linnaeus (Angel's Trumpet) Fruits” (BioMed Research International, 2020).

Experiments:
[1] = target: T1, α-glucosidase (rat intestinal); test: p-nitrophenyl-α-D-glucopyranoside hydrolysis, […] nm, crude intestinal enzyme; format: biochemical
T1 construct: supernatant of rat intestinal acetone powder

β-secretase (BACE1) = β-secretase (BACE1) (Homo sapiens, UniProt P56817); test: BACE1 FRET enzyme assay, pH […]; format: biochemical
β-secretase (BACE1), sequence (P56817 46-457): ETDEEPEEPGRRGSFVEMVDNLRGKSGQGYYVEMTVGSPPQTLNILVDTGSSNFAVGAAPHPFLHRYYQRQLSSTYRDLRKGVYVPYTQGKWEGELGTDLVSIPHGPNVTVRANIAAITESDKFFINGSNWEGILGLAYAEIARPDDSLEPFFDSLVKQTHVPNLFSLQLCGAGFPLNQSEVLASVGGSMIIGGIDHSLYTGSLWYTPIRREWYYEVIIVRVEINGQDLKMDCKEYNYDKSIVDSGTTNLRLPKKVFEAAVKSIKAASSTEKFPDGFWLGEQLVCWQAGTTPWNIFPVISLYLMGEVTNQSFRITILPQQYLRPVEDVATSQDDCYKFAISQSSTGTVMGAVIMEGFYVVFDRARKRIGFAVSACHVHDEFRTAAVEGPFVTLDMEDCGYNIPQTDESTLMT

IC50 [1]: 830.4 ± 2.01 µM
IC50 (β-secretase (BACE1)): 260.7 ± 1.87 µM
SMILES: CC1(C)CC[C@]2(C)CC[C@]3(C)C(=CC[C@@H]4[C@@]5(C)CCC(=O)C(C)(C)[C@@H]5[C@H](O)C[C@]43C)[C@@H]2C1 [compound 1, daturaolone]
